# Results: US20220274938A1, “5-[(1S)-1-(4-BROMOPHENOXY)ETHYL]-2H-TETRAZOLE DERIVATIVES AND RELATED COMPOUNDS AS CLC-1 ION CHANNEL INHIBITORS FOR TREATING NEUROMUSCULAR DISORDERS” (NMD PHARMA A/S, priority 2019, published 2022)
# Molecular target: T1, CIC-1 ion channel (Rattus norvegicus, UniProt P35524)
# T1 construct: CIC-1 channels in native tissue of rat skeletal muscle fibres; from tissue; host or cells: whole soleus muscle of 12-14 week old Wistar rats
# T1 sequence (P35524 1-994): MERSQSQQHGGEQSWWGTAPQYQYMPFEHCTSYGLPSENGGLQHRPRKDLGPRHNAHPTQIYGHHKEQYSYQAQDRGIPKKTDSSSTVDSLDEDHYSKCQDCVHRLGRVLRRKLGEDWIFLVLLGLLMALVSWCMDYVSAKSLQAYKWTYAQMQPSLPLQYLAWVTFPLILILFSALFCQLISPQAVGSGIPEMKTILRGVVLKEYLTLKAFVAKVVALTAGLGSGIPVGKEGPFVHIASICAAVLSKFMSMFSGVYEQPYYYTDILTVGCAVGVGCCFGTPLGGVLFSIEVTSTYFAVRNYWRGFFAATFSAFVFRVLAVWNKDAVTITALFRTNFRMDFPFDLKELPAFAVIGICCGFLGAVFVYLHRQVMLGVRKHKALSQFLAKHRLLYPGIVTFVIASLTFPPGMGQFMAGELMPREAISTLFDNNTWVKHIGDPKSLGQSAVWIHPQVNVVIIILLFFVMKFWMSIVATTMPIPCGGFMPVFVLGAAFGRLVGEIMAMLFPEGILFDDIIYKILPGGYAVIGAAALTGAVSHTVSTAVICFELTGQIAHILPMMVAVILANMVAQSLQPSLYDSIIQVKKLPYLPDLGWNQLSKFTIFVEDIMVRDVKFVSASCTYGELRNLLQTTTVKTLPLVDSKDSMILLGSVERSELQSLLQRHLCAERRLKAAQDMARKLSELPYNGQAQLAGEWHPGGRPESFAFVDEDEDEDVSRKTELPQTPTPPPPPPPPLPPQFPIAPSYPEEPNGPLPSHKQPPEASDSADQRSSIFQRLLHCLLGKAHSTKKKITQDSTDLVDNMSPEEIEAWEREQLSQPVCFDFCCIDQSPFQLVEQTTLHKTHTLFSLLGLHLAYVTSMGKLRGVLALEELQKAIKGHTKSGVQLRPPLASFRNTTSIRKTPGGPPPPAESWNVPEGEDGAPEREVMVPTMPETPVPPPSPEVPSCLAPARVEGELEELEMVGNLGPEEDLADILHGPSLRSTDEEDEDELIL
# Experiment: Electrophysiological measurement (Gm, three micro-electrodes) of compound inhibition of CIC-1 in rat soleus muscle fibres
# Format: cell-based
# Settings: approx. 30° C., four increasing compound concentrations, read-out: EC50 (inhibition of CIC-1 ion channel, reduction of Gm)
# Excerpt: FIG. 1. […] Please note that the drawing illustrates only the impaled fibre although it is part of an intact muscle that contains many such fibres. All electrodes recorded the membrane potential of the fibre and the two peripheral electrodes were used to inject current (−30 nA, 50 ms). The electrodes were inserted with known inter-electrode distances (X1, X2 and X3). After insertion, current was passed first via the V1 electrode and then via the V3 electrode. The resulting deflections in the membrane voltage were measured by the other electrodes. The steady state deflections in membrane potential were measured and divided by the magnitude of the injected current (−30 nA) to obtain transfer resistances. These were next plotted against inter-electrode distances, and fitted to an exponential function (Panel B), from which Gm could be calculated using linear cable theory. The approach described in panel A and B, was repeated for several muscle fibres in the muscle during exposure at increasing concentrations of compound E-8, with approx. 10 fibres at each concentration. Average Gm at each concentration was plotted as a function of compound concentration in panel C, and fitted to a 4-parameter sigmoidal function from which the EC50 value for the compound was obtained (dashed line)
# Apparent CIC-1 affinity was reported by the concentration of compound at which 50% of the compound's full inhibition of CIC-1 was observed (EC50).
# CIC-1 Cl^− ion channels generate around 80% of the total membrane conductance (Gm) in resting skeletal muscle fibres of most animals including rat and human (Bretag, A H. Muscle chloride channels. Physiological Reviews, 1987, 67, 618-724). […] CIC-1 inhibition would in such recordings be reflected by a reduction of Gm.
# Experimentally, Gm was measured in individual fibres of whole rat soleus muscles using a three micro-electrodes technique described in this example and in full detail elsewhere (Riisager et al., Determination of cable parameters in skeletal muscle fibres during repetitive firing of action potentials. Journal of Physiology, 2014, 592, 4417-4429). Briefly, intact rat soleus muscles were dissected out from 12-14 week old Wistar rats and placed in an experimental chamber that was perfused with a standard Krebs Ringer solution containing 122 mM NaCl, 25 mM NaHCO3, 2.8 mM KCl, 1.2 mM KH2PO4, 1.2 mM MgSO4, 1.3 mM CaCl2, 5.0 mM D-glucose. During experiments, the solution was kept at approx. 30° C. and continuously equilibrated with a mixture of 95% O2 and 5% CO2, pH˜7.4. The experimental chamber was placed in Nikon upright microscope that was used to visualize individual muscle fibres and the three electrodes (glass pipettes filled with 2 M potassium citrate). For Gm measurements, the electrodes were inserted into the same fibre with known inter-electrode distances of 0.35-0.5 mm (V1-V2, X1) and 1.1-1.5 mm (V1-V3, X3) (FIG. 1A). The membrane potential of the impaled muscle fibre was recorded by all electrodes. Two of the electrodes were furthermore used to inject 50 ms current pulses of −30 nA. […] The steady state voltage deflection at each distance was divided by the magnitude of current injected (−30 nA) and the resulting transfer resistances were plotted against inter-electrode distance and the data was fitted to a mono-exponential function from which Gm could be calculated using linear cable theory (FIG. 1B).
# To establish a dose response relationship, Gm was first determined in 10 muscle fibres in the absence of compound and then at four increasing compound concentrations with Gm determinations in 5-10 fibres at each concentration. The average Gm values at each concentration were plotted against compound concentration and the data was fitted to sigmoidal function to obtain an EC50 value (FIG. 1C).
row,SMILES,EC50
1,"CC(=NO)NC(=O)[C@H](C)Oc1ccc(Br)cc1 [Compound A-6, (2S)-2-(4-bromophenoxy)-N-[1-(hydroxyimino)ethyl]propanamide]",2 µM
2,C[C@H](Oc1ccc(Br)cc1-c1ccon1)c1nnn[nH]1 [Compound E-7],6 µM
3,"CCONC(=O)[C@H](C)Oc1ccc(Cl)cc1 [Compound C-82, (2S)-2-(4-chlorophenoxy)-N-ethoxypropanamide]",9.7 µM
4,"CCCONC(=O)[C@H](C)Oc1ccc(Cl)cc1 [Compound C-83, (2S)-2-(4-chlorophenoxy)-N-propoxypropanamide]",3.5 µM
5,"C[C@H](Oc1ccc(Cl)cc1)c1nnn[nH]1 [Compound E-15, 5-[(1S)-1-(4-chlorophenoxy)ethyl]-1H-1,2,3,4-tetrazole]",19.9 µM
6,"C/C(=N\O)NC(=O)[C@@H](Oc1ccc(Br)cc1F)C(C)C [Compound A-4, (2S)-2-(4-bromo-2-fluorophenoxy)-N-[1(hydroxyimino)ethyl]-3-methylbutanamide]",2.2 µM
7,"C[C@H](Oc1ccc(Cl)cc1)C(=O)NOC1CCCC1 [Compound C-70, (2S)-2-(4-chlorophenoxy)-N-(cyclopentyloxy)propanamide]",4.6 µM
8,"CC(C)ONC(=O)[C@H](C)Oc1ccc(Cl)cc1 [Compound C-84, (2S)-2-(4-chlorophenoxy)-N-(propan-2-yloxy)propanamide]",11.5 µM

# Tested on: isolated rat soleus muscles
# Experiment: Measurement of force in an in vitro model: isolated rat soleus nerve-muscle preparation with tubocurarine
# Format: cell-based
# Settings: 50 μM test compound, after 40 mins of compound exposure; 115 nM tubocurarine for 90 mins
# Method: FIG. 2. […] Force traces from a representative muscle stimulated to contract in 1) control condition before addition of neuromuscular blocking agent, 2) the force response to stimulation after 90 minutes incubation with Tubocurarine. […] The traces presented in panel A (1, 2, 3), correspond to the dotted lines in panel B, respectively.
# Recovery of force is quantified as the percentage of the force prior to tubocurarine that is recovered by the compound.
# The current disclosure relates to compounds that inhibit CIC-1 ion channels and increase muscle excitability and thereby improve muscle function in clinical conditions where muscle activation is failing. Such conditions result in loss of contractile function of skeletal muscle, weakness and excessive fatigue. In this series of experiments the compounds were tested for their ability to restore contractile function of isolated rat muscle when the neuromuscular transmission had been compromised akin to neuromuscular disorders.
# Experimentally, soleus muscles from 4-5 week old rats were isolated with the motor nerve remaining attached. The nerve-muscle preparations were mounted in experimental setups that enabled electrical stimulation of the motor nerve. Stimulation of the motor nerve led to activation of the muscle fibres and ensuing force production that was recorded. The nerve-muscle preparations were also in these experiments incubated in the standard Krebs Ringer (see example 5) and the solution was heated to 30° C. and continuously equilibrated with a mixture of 95% O2 and 5% CO2, pH˜7.4.
# After mounting the nerve-muscle preparation in the experimental setup, the contractile function of the muscle was initially assessed under the control conditions (FIG. 2A). […] The experimental condition mimics the failing neuromuscular transmission in a range of neuromuscular disorders. After addition of tubocurarine the contractile force declined over the next 90 mins to 10-50% of the control force. 50 μM of the test compound was then added and the contractile force recovered despite the continued presence of tubocurarine. To quantify the ability of the compound to restore force the percentage of the initial force that was restored was determined after 40 mins of compound exposure (FIG. 2B) and the point increase is reported in Table 3.
row,SMILES,Point increase (%) of initial force that was restored
1,"CCC(F)(F)c1cc(Br)c(F)cc1O[C@@H](C)C(=O)NC#N [Compound B-7, (2S)-2-[4-bromo-2-(1,1-difluoropropy1)-5-fluorophenoxy]-N-cyanopropanamide]",37%
2,"CC(=NO)NC(=O)[C@H](C)Oc1ccc(Br)cc1F [Compound A-5, (2S)-2-(4-bromo-2-fluorophenoxy)-N-[1-(hydroxyimino)ethyl]ropanamide]",30%
3,C[C@H](Oc1ccc(Br)cc1C(C)(F)F)C(=O)NC#N [Compound B-6],15%

# Same assay, conditions: Rattus norvegicus, 40 min; 50 μM test compound, after 40 mins of compound exposure; 115 nM tubocurarine for 90 mins; read-out: Point increase (%) of initial force that was restored
row,SMILES,activation at 50 µM
1,"CONC(=O)[C@H](C)Oc1ccc(Cl)cc1F [Compound C-40, (2S)-2-(4-chloro-2-fluorophenoxy)-N-methoxypropanamide]",24%
2,"C[C@H](Oc1ccc(Br)cc1)c1nn[nH]n1 [Compound E-6, 5-[(1S)-1-(4-bromophenoxy)ethyl]-2H-1,2,3,4-tetrazole]",21%
3,FCC[C@H](Oc1ccc(Br)cc1-c1ccon1)c1nn[nH]n1 [Compound E-1],21%
4,"C[C@H](Oc1ccc(Cl)cc1)C(=O)NOCc1ccon1 [Compound C-39, (2S)-2-(4-chlorophenoxy)-N-[(1,2-oxazol-3-yl)methoxy]propanamide]",49%
5,"C[C@H](Oc1ccc(Cl)cc1)C(=O)NOCCC1CCCC1 [Compound C-71, (2S)-2-(4-chlorophenoxy)-N-(2-cyclopentylethoxy)propanamide]",25%
6,"CC(=O)N1CC(ON(C(C)=O)C(=O)[C@H](C)Oc2ccc(Cl)cc2)C1 [Compound C-3, (2S)-N-acetyl-N-[(1-acetylazetidin-3-yl)oxy]-2-(4-chlorophenoxy)propanamide]",29%
7,"CC(=O)N1CCC(ON(C(C)=O)C(=O)[C@H](C)Oc2ccc(Cl)cc2)C1 (stereo partly drawn) [Compound C-16, (2S)-N-acetyl-N-[(1-acetylpyrrolidin-3-yl)oxy]-2-(4-chlorophenoxy)propanamide]",23%
8,"C[C@H](Oc1ccc(Cl)cc1)C(=O)NOC1CC(F)(F)C1 [Compound C-67, (2S)-2-(4-chlorophenoxy)-N-(3,3-difluorocyclobutoxy)propanamide]",23%
9,"C[C@H](Oc1ccc(Br)cc1F)C(=O)NOC1CCC1 [Compound C-31, (2S)-2-(4-bromo-2-fluorophenoxy)-N-cyclobutoxypropanamide]",56%
10,"C[C@H](Oc1ccc(Cl)cc1)C(=O)NOCc1nccs1 [Compound C-66, (2S)-2-(4-chlorophenoxy)-N-[(1,3-thiazol-2-yl)methoxy]propanamide]",21%
11,"C[C@H](Oc1ccc(Cl)cc1)C(=O)NOC(C)(C)C [Compound C-43, (2S)-N-(tert-butoxy)-2-(4-chlorophenoxy)propanamide]",20%
12,"C=Cc1cc(Cl)ccc1O[C@@H](C)c1nnn[nH]1 [Compound E-12, 5-[(1S)-1-(4-chloro-2-ethenylphenoxy)ethyl]-1H-1,2,3,4-tetrazole]",21%
13,"C[C@H](Oc1ccc(Cl)cc1)C(=O)NOC1CCCCO1 (stereo partly drawn) [Compound C-65, (2S)-2-(4-chlorophenoxy)-N-(oxan-2-yloxy)propanamide]",26%
14,"CC(=O)N1CCC(ON(C(C)=O)C(=O)[C@H](C)Oc2ccc(Br)cc2)C1 (stereo partly drawn) [Compound C-12, (2S)-N-acetyl-N-[(1-acetylpyrrolidin-3-yl)oxy]-2-(4-bromophenoxy)propanamide]",18%
